Assays:
Type in all cases: cell-based
IR [1] = test: Western blot assays of fructose-dependent insulin signaling (IR autophosphorylation, p-AKT/AKT, p-FOXO1/FOXO1, p-GSK-3/GSK-3) in HepG2 cells; conditions: single hormone dose 50 nM
Experimental: Signal propagation was probed via a cytoplasmic kinase cascade and changes in metabolic gene expression in HepG2 cells. […] An overview of IR autophosphorylation (probed by anti-pTyr IR antibodies) and downstream phosphorylation of Ser-Thr protein kinase AKT (protein kinase B; ratio p-AKT/AKT), forkhead transcription factor 1 (p-FOXO1/FOXO1), and glycogen synthase kinase-3 (p-GSK-3/GSK-3) at a single hormone dose (50 nM) was provided by Western blot (WB; FIG. 4 D-F). […] The activity of FRI in the absence of fructose is low.

IR [2] = test: 96-well plate assay of dose-dependent and ligand-selective IR autophosphorylation
Experimental: Quantitative dose-dependent and ligand-selective IR autophosphorylation were evaluated in a 96-well plate assay (FIG. 5A). FRI triggered a robust signal on addition of 50 mM fructose whereas baseline activity in the absence of fructose was low.

HepG2 cells = test: PCR assays of ligand-selective metabolic gene regulation (PEPCK, ChREBP, SREBP) in HepG2 cells; conditions: control studies
Experimental: Insulin-signaling in hepatocytes extends to metabolic transcriptional regulation as recapitulated in HepG2 cells. […] Control studies were undertaken in the absence of insulin analogs to assess potential confounding changes in metabolic gene expression on addition of 0 to 100 mM fructose or 0 to 100 mM glucose.

insulin lispro [KP]
signaling by Western blot (IR autophosphorylation, p-AKT/AKT, p-FOXO1/FOXO1, p-GSK-3/GSK-3): dependence on fructose (IR [1]): fructose-independent signaling | IR autophosphorylation signal on addition of 50 mM fructose (IR [2]; 50 mM fructose): high signaling activity | effect of addition of 50 mM glucose on IR autophosphorylation activity (IR [2]; 50 mM glucose): did not influence | IR autophosphorylation baseline activity in the absence of fructose (IR [2]; no fructose): high signaling activity | fructose dependence of metabolic gene regulation (HepG2 cells): No fructose dependence

Source: patent US20230399373A1, “MOLECULAR DESIGNS OF GLUCOSE-RESPONSIVE AND GLUCOSE-CLEAVABLE INSULIN ANALOGUES” (THE TRUSTEES OF INDIANA UNIVERSITY, priority 2020, published 2023)
